Source: US20230021562A1, “[…] D[…]-1 INHIBITORS” (priority 2019, published 2023)
“And” between values parts separate entries of the source, which are not always exact repeats. Equal entries are not always repeated. Where two headings read alike, the source gives them in different places.

Experiments:
[1] = molecular target: Myeloid Cell Leukemia 1 (Mcl-1) (Homo sapiens, UniProt Q07820); assay: biochemical; type: binding; conditions: HTRF Ki (nM)
MOLP8 cell line = assay: MOLP8 CellEvent Caspase-3/7 Green live-cell IncuCyte apoptosis assay; type: cell-based, human; conditions: averaged values
Description: (§1) MCL-1 is a regulator of apoptosis and is highly over-expressed in tumor cells that escape cell death. The assay evaluates the cellular potency of small-molecule compounds targeting regulators of the apoptosis pathway, primarily MCL-1, Bfl-1, Bcl-2, and other proteins of the Bcl-2 family. Protein-protein inhibitors disrupting the interaction of anti-apoptotic regulators with BH3-domain proteins initiate apoptosis.
Activation of the apoptotic pathway was measured using the CellEvent™ Caspase-3/7 Green ReadyProbes™ Reagent (Thermo Fisher C10423, C10723). This assay produces a green fluorescent stain in cells that enter the apoptosis pathway. CellEvent® Caspase-3/7 Green reagent is a four amino acid peptide (DEVD) conjugated to a nucleic acid-binding dye that is non-fluorescent when not bound to DNA. The CellEvent® Caspase-3/7 Green reagent is intrinsically non-fluorescent, as the DEVD peptide inhibits binding of the dye to DNA. Upon activation of caspase-3/7 in apoptotic cells, the DEVD peptide is cleaved and the free dye can bind DNA, generating a bright green fluorescence. The activation of Caspase-3 and Caspase-7 is downstream of inhibition of MCL-1 or other apoptosis inhibiting proteins in cell lines that are dependent on them.
The live-cell readout on the IncuCyte permits tracking over time of the Caspase activation. […] The IncuCyte readout also allows one to normalize for cell number, as the suspension cells are hard to distribute evenly.
Signals were measured every 2 h for a duration of 22 h. The ratio of the Caspase mask to the Confluence mask, per image, as raw data, was calculated and the kinetic trace for every well was exported to Genedata Screener for analysis.
In Genedata Screener values for 6 h, 12 h, and 22 h from the kinetic traces were extracted. The values were normalized against negative controls (untreated cells). A standard dose-response analysis was performed on the normalized data.
The following data was reported at each of the following three aforementioned time points: (a) The dose-response curve, (b) The qAC50 and qAC50 Mode, and (c) Max Activity.
Cells were maintained in culture medium containing 10% Heat Inactivated (HI) FBS, 2 mM L-Glutamine and 50 μg/mL Gentamycin phenol red free RPMI-1640. Cells were split at 0.4 million/mL twice a week.
On Day 1, plates containing individual wells with test compounds at 10 mM concentration, 150 nL per well. The final concentrations range from […] compound (and no compound control) and compounds were thawed at room temperature for 1 hour. 25 μl of prewarmed medium was added into each well by multidrop (column 1, 3-22, 24), followed by addition of DMSO control (0.6% DMSO) in column 2. The plate was sealed using Breathe-Easy® sealing membrane and shaken for 30 min at room temperature to dissolve the test compound(s) in medium. The plate was then kept in the incubator for 1 hour at 37° C., 5% CO2.
MOLP8 cells in medium at […] (20000/50 μl final in assay) were prepared with CellEvent™ Caspase-3/7 Green Detection Reagent at 4 μM (2 μM final in assay). Once prepared, the cells were added to the test compound plate in an amount of 20000 and the plate was immediately placed in the IncuCyte and imaging started using following settings: 10× objective, 2 s exposure time in green channel, interval of 2 h, acquisition stopped after 22 h.
For analysis in IncuCyte, a Basic Analysis protocol was defined to calculate the “confluence” and “caspase” areas from the “Phase” and “green” images, respectively, as follows: (a) Confluence: Segmentation Adjustment 1, Hole Fill 0, Adjust Size −2, No filters (b) Caspase: Top-Hat segmentation, Radius 10, Threshold 0.3 GCU, Edge Split On with sensitivity 0, Hole Fill 0, Adjust Size 1, and filter on a minimum Area of 20 μm^2. The analyzer is trained on a sufficient number of positive and negative control wells, as well as compound treated wells, verifying that the “confluence” layer detects both live and dead (condensed) cells. […]

[2] = system: MOLP-8 human multiple myeloma cell line; assay: MOLP8 Caspase-Glo 3/7 luminescent assay; type: cell-based; conditions: averaged over all runs on all batches
From the text: as §1
The Caspase-Glo® 3/7 Assay is a luminescent assay that measures caspase-3 and -7 activities in purified enzyme preparations or cultures of adherent or suspension cells. The assay provides a proluminescent caspase-3/7 substrate, which contains the tetrapeptide sequence DEVD. This substrate is cleaved to release aminoluciferin, a substrate of luciferase used in the production of light. Addition of the single Caspase-Glo® 3/7 Reagent in an “add-mix-measure” format results in cell lysis, followed by caspase cleavage of the substrate and generation of a “glow-type” luminescent signal.
This assay uses the MOLP-8 human multiple myeloma cell line, which is sensitive to MCL-1 inhibition.
Cell cultures were maintained between 0.2 and 2.0×10^6 cells/mL. The cells were harvested by collection in 50 mL conical tubes. The cells were then pelleted at 500 g for 5 mins before removing supernatant and resuspension in fresh pre-warmed culture medium. The cells were counted and diluted as needed.
The assay reagent was prepared by transferring the buffer solution to the substrate vial and mixing. The solution may be stored for up to 1 week at 4° C. with negligible loss of signal.
Compounds were delivered in assay-ready plates (Proxiplate) and stored at −20° C.
Assays always include 1 reference compound plate containing reference compounds. The plates were spotted with 40 nL of compounds (0.5% DMSO final in cells; serial dilution; 30 μM highest conc. 1/3 dilution, 10 doses, duplicates). The compounds were used at room temperature and 4 μL of pre-warmed media was added to all wells except column 2 and 23. The negative control was prepared by adding 1% DMSO in media. The positive control was prepared by adding the appropriate positive control compound in final concentration of 60 μM in media. The plate was prepared by adding 4 μL negative control to column 23, 4 μL positive control to column 2 and 4 μL cell suspension to all wells in the plate. The plate with cells was then incubated at 37° C. for 2 hours. The assay signal reagent is the Caspase-Glo solution described above, and 8 μL was added to all wells. The plates were then sealed and measured after 30 minutes.
The activity of a test compound was calculated as percent change in apoptosis induction as follows: […]

[3] = read-out: MOLP8 Caspase 3/7 AC50 at 6 h, MOLP8 cells, 6 h
[4] = read-out: MOLP8 Caspase 3/7 AC50 at 12 h, MOLP8 cells, 12 h
[5] = read-out: MOLP8 Caspase 3/7 AC50 at 22 h, MOLP8 cells, 22 h
[6] = MOLP8 cells, 2 hours incubation, read-out: MOLP8 Caspase-Glo AC50
[7] = read-out: MOLP8 Caspase-Glo AC50, MOLP8 cells, 2 hours incubation

Sequence of Myeloid Cell Leukemia 1 (Mcl-1) (Q07820 whole entry): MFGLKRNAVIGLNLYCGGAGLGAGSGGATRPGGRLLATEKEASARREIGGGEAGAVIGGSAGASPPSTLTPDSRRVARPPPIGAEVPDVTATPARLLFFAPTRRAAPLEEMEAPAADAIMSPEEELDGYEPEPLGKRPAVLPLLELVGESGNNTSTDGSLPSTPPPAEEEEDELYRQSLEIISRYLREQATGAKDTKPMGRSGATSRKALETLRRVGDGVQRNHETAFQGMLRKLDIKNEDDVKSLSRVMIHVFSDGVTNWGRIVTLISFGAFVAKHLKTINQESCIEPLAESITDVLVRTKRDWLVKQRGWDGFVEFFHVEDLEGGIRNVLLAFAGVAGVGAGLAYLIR

SMILES	Ki [1]	AC50 (MOLP8 cell line; [3])	AC50 (MOLP8 cell line; [4])	AC50 (MOLP8 cell line; [5])	AC50 [2, 6]	AC50 (MOLP8 cell line; Homo sapiens, MOLP-8, 6 h, read-out: MOLP8 Caspase 3/7 AC50 at 6 h (μM), MOLP8 cells, 6 h)	AC50 (MOLP8 cell line; Homo sapiens, MOLP-8, 12 h, read-out: MOLP8 Caspase 3/7 AC50 at 12 h (μM), MOLP8 cells, 12 h)	AC50 (MOLP8 cell line; Homo sapiens, MOLP-8, 22 h, read-out: MOLP8 Caspase 3/7 AC50 at 22 h (μM), MOLP8 cells, 22 h)	AC50 ([2]; Homo sapiens, MOLP-8, 2 h, read-out: MOLP8 Caspase-Glo AC50 (nM), MOLP8 cells, 2 hours incubation)	AC50 [2, 7]	AC50 ([2]; Homo sapiens, MOLP-8, 2 h, MOLP8 cells, 2 hours incubation, read-out: MOLP8 Caspase-Glo AC50)
Cc1nn(CCCN2CCOCC2)c2c1-c1c(Cl)ccc3c(c(C(=O)O)n(C)c13)CCCOc1cc(cc3ccccc13)SCc1cc(nn1C)CN(C)C2 (single isomer, unassigned) [Compound 33]	0.03 nM	0.3 µM	0.24 µM	0.34 µM	94 nM	–	–	–	–	–	–
COCCn1nc2cc1CSc1cc(c3ccccc3c1)OCCCc1c(C(=O)O)n(C)c3c(c(Cl)ccc13)-c1c(nn(C)c1C)CSC2 [Compound 10]	0.11 nM	–	–	–	–	0.2 µM	0.22 µM	0.21 µM	49 nM	–	–
COCCn1nc2c(c1C)-c1c(Cl)ccc3c(c(C(=O)O)n(C)c13)CCCOc1cc(cc3ccccc13)SCc1cc(nn1C)CN(C)C2 (single isomer, unassigned) [Compound 27]	0.03 nM and 0.06 nM	0.1 µM	0.1 µM	0.09 µM	–	–	–	–	–	36 nM	–
Cc1c2c(nn1CCCN1CCOCC1)CN(C)Cc1cc(n(C)n1)CSc1cc(c3ccccc3c1)OCCCc1c(C(=O)O)n(C)c3c-2c(Cl)ccc13 (single isomer, unassigned) [Compound 36]	1.34 nM and 2.06 nM	6.14 µM	5.77 µM	4.29 µM	–	–	–	–	–	–	2820 nM
CCn1nc2cc1CSc1cc(c3ccccc3c1)OCCCc1c(C(=O)O)n(C)c3c(c(Cl)ccc13)-c1c(nn(C)c1C)CSC2 (single isomer, unassigned) [Compound 44]	4.06 nM	–	–	–	–	–	–	–	–	3560 nM	–
Cc1c2c(nn1CC1CCOCC1)CN(C)Cc1cc(n(C)n1)CSc1cc(c3ccccc3c1)OCCCc1c(C(=O)O)n(C)c3c-2c(Cl)ccc13 (single isomer, unassigned) [Compound 16]	0.06 nM and 0.05 nM	0.15 µM	0.14 µM	0.15 µM	49 nM	–	–	–	–	–	–
Cc1nn(CCN(C)C)c2c1-c1c(Cl)ccc3c(c(C(=O)O)n(C)c13)CCCOc1cc(cc3ccccc13)SCc1cc(nn1C)CN(C)C2 (single isomer, unassigned) [Compound 19]	0.08 nM and 0.18 nM	1.09 µM	0.99 µM	0.99 µM	233 nM	–	–	–	–	–	–
Cc1nn(CCCN2CCOCC2)c2c1-c1c(Cl)ccc3c(c(C(=O)O)n(C)c13)CCCOc1cc(cc3ccccc13)SCc1cc(nn1C)CN(C)C2 (single isomer, unassigned) [Compound 34]	0.47 nM and 0.68 nM	2.25 µM	2.54 µM	2.32 µM	1000 nM	–	–	–	–	–	–
CCn1nc2cc1CSc1cc(c3ccccc3c1)OCCCc1c(C(=O)O)n(C)c3c(c(Cl)ccc13)-c1c(nn(C)c1C)CSC2 (single isomer, unassigned) [Compound 43]	0.04 nM	–	–	–	–	–	–	–	–	63 nM	–
